Results from US9145376B2, “Quinazolinone inhibitors of dynein” (The Rockefeller University, priority 2011, dated 2015).

Experiments:
[1] = tested on: primary cilia of Shh-EGFP cells; experiment: Quantitative assessment of ciliogenesis (Arl13b staining, cilia size); type: cell-based; settings: 24 hours, read-out: Primary cilia size (percent of DMSO control at a 30 μM dose)
Protocol: Shh-EGFP cells [J. Hyman et al., Proc. Natl. Acad. Sci. U.S.A., (2009)], an NIH-3T3-based cell line containing a stably integrated Gli-responsive enhanced green fluorescent protein reporter, were maintained in DMEM containing 10% calf serum, 100 U/mL penicillin, and 0.1 mg/mL streptomycin. The cells were seeded into 24-well plates containing poly-D-lysine-coated 12-mm glass coverslips at a density of 30,000 cells/well and cultured for 36 hours. The cells were transferred into DMEM containing 0.5% calf serum, the antibiotics described above, and either individual compounds at a 30 μM concentration or 0.3% DMSO. After being cultured for another 24 hours, the cells were fixed in PBS containing 4% paraformaldehyde for 10 minutes at room temperature, washed 3×5 minutes with PBS, permeabilized with PBS containing 0.3% Triton X-100 for 5 minutes, and blocked overnight at 4° C. with PBS containing 5% normal goat serum, 0.1% Triton X-100, and 0.05% sodium azide. The coverslips were then incubated for 90 minutes at room temperature with blocking buffer containing rabbit polyclonal anti-Arl 13b antibody (1:3000 dilution), washed 4×5 minutes with PBS containing 0.1% Triton X-100, and incubated for 60 minutes with blocking buffer containing Alexa Fluor 488-conjugated goat polyclonal anti-rabbit IgG antibody (1:300 dilution; Invitrogen, A-11034). Following this secondary antibody incubation, nuclei were stained by incubating the cells 2×10 minutes with PBS containing 0.1% Triton X-100 and […] 4′,6-diamidino-2-phenylindole (DAPI) and washing them 2×5 minutes with PBS. The coverslips were subsequently mounted onto slides using Prolong Gold Antifade Reagent (Invitrogen) and imaged using an HC Plan Apochromat CS 20×/0.70 NA oil immersion objective on a Leica DMI6000B compound microscope equipped with a Photometric CoolSNAP HQ CCD camera and Metamorph software (Molecular Devices). Images of Arl13b staining in DMSO-treated cells were manually examined to establish a minimum threshold value for cilia staining intensity. ImageJ software was then used to define objects consisting of two or more adjacent pixels with a signal intensity equal to or greater than this threshold value, and the total object area within an individual image was used to estimate the total pixel area of primary cilia. Corresponding images of DAPI staining were processed in parallel using CellProfiler software to establish the number of nuclei per image. The average cilia size per cell within an individual image was then determined by dividing the total ciliary pixel area by the number of nuclei. Ten individual images, each containing approximately 150 cells. were used to quantify the average cilia size for each experimental condition.
Shh-EGFP cells, an NIH-3T3-based cell line containing a stably integrated Gli-responsive enhanced green fluorescent protein reporter, were maintained in DMEM containing 10% (v/v) calf serum, 100 U/mL penicillin, and 0.1 mg/mL streptomycin. The cells were seeded into 24-well plates containing poly-D-lysine-coated 12-mm glass coverslips at a density of 30,000 cells/well and cultured for 36 hours. The cells were transferred into DMEM containing 0.5% (v/v) calf serum, the antibiotics described above, and either individual dihydroquinazolinones at a 30 μM concentration or an equivalent amount of DMSO vehicle (0.3%, v/v). After being cultured for another 24 hours, the cells were fixed in PBS containing 4% (w/v) paraformaldehyde for 10 min at room temperature, washed 3×5 min with PBS, permeabilized with PBS containing 0.3% (v/v) Triton X-100 for 5 min, and blocked overnight at 4° C. with PBS containing 5% (v/v) normal goat serum, 0.1% (v/v) Triton X-100, and 0.05% (w/v) sodium azide. […]

[2] = tested on: Hh pathway (Gli-responsive firefly luciferase reporter in Shh-LIGHT2 cells); experiment: Shh-LIGHT2 assay for Hh pathway activity; type: cell-based; settings: 10% Shh-conditioned medium, 24 hours, firefly/Renilla luciferase ratio
Protocol: Shh-N-conditioned medium was prepared as described by Chen et al., Proc. Natl. Acad. Sci. U.S.A. 99, 14071 (2002). Shh-LIGHT2 cells [J. Taipale et al., Nature 406, 1005 (2000)], an NIH-3T3-based cell line containing a stably integrated Gli-responsive firefly luciferase reporter and a constitutive thymidine kinase promoter-driven Renilla luciferase expression construct (pRLTK, Promega), were cultured in DMEM containing 10% calf serum. 100 U/mL penicillin, and 0.1 mg/mL streptomycin. The cells were seeded into 96-well plates at a density of 30,000 cells/well, and the following day they were treated with individual compounds or DMSO in DMEM containing 0.5% calf serum, 10% Shh-conditioned medium, and the antibiotics described above. After being cultured for another 24 hours, the cells were lysed and their firefly and Renilla luciferase activities were determined using, a dual luciferase reporter kit (Promega) and a microplate luminometer (Veritas). Average values representing the firefly luciferase/Renilla luciferase ratio from triplicate samples were used to construct dose response profiles for each compound. Dose-response data from three separate experiments were independently curve-fitted with a variable slope, sigmoidal dose-response algorithm using Prism software, and the resulting IC50 values were used to generate an average IC50 for each compound.

Structure (SMILES)	activity at 30 µM [1] [%]	IC50 [2] [µM]
N#C/C(C(=O)c1ccc(Cl)cc1Cl)=C1\NC(=O)c2ccccc2N1 [Example 1, 3-(2,4-dichlorophenyl)-3-oxo-2-(4-oxo-3,4-dihydroquinazolin-2(1H)-ylidene)propanenitrile]	27	9.9
N#C/C(C(=O)c1ccc(Cl)cc1)=C1\NC(=O)c2ccccc2N1 [Example 2, 3-(4-chlorophenyl)-3-oxo-2-(4-oxo-3,4-dihydroquinazolin-2(1H)-ylidene)propanenitrile]	74	5.2
N#C/C(C(=O)c1ccccc1)=C1\NC(=O)c2ccccc2N1 [Example 16, 3-oxo-2-(4-oxo-3,4-dihydroquinazolin-2(1H)-ylidene)-3-phenylpropanenitrile]	95	23
N#C/C(C(=O)c1ccc(Cl)cc1Cl)=C1\NC(=O)c2ccc(Cl)cc2N1 [Example 31, 2-(7-chloro-4-oxo-3,4-dihydroquinazolin-2(1H)-ylidene)-3-(2,4-dichlorophenyl)-3-oxo-propanenitrile]	7	15
